Test results as given in ChEMBL document CHEMBL3112553, “Synthesis and biological evaluation of novel C6-amino substituted 4-azasteroidal purine nucleoside analogues” (Bioorg Med Chem Lett, 2014).

Experiments:
Type in all cases: functional, cell-based
PC-3 = experiment: Antiproliferative activity against human PC3 cells by MTT assay
MCF7 = experiment: Antiproliferative activity against human MCF7 cells by MTT assay
HeLa = experiment: Antiproliferative activity against human HeLa cells by MTT assay

| SMILES | IC50 (PC-3) [µM] | IC50 (MCF7) [µM] | IC50 (HeLa) [µM] |
| --- | --- | --- | --- |
| C[C@]12CCC(=O)N[C@@H]1CC[C@@H]1[C@@H]2CC[C@]2(C)O[C@H](n3cnc4c(NCc5ccccc5)ncnc43)CC[C@@H]12 | 20.6 | > 100 | > 100 |
| C[C@]12CCC(=O)N[C@@H]1CC[C@@H]1[C@@H]2CC[C@]2(C)O[C@H](n3cnc4c(NCCO)nc(Cl)nc43)CC[C@@H]12 | > 100 | > 100 | > 100 |
| C[C@]12CCC(=O)N[C@@H]1CC[C@@H]1[C@@H]2CC[C@]2(C)O[C@H](n3cnc4c(N(CCO)CCO)ncnc43)CC[C@@H]12 | > 100 | > 100 | > 100 |
| C[C@]12CCC(=O)N[C@@H]1CC[C@@H]1[C@@H]2CC[C@]2(C)O[C@H](n3cnc4c(N(CCO)CCO)nc(Cl)nc43)CC[C@@H]12 | > 100 | > 100 | > 100 |
| C[C@]12CCC(=O)N[C@@H]1CC[C@@H]1[C@@H]2CC[C@]2(C)O[C@H](n3cnc4c(NCc5ccccc5)nc(Cl)nc43)CC[C@@H]12 | 17.9 | 12.8 | 2.69 |
| Cc1ccc(CNc2ncnc3c2ncn3[C@@H]2CC[C@H]3[C@@H]4CC[C@H]5NC(=O)CC[C@]5(C)[C@H]4CC[C@]3(C)O2)cc1 | 44.2 | 32.7 | 28.2 |
| Cc1ccc(CNc2nc(Cl)nc3c2ncn3[C@@H]2CC[C@H]3[C@@H]4CC[C@H]5NC(=O)CC[C@]5(C)[C@H]4CC[C@]3(C)O2)cc1 | 26.6 | 12.9 | 67.2 |
| COc1ccc(CNc2ncnc3c2ncn3[C@@H]2CC[C@H]3[C@@H]4CC[C@H]5NC(=O)CC[C@]5(C)[C@H]4CC[C@]3(C)O2)cc1 | > 100 | 60.3 | 38.7 |
| COc1ccc(CNc2nc(Cl)nc3c2ncn3[C@@H]2CC[C@H]3[C@@H]4CC[C@H]5NC(=O)CC[C@]5(C)[C@H]4CC[C@]3(C)O2)cc1 | > 100 | > 100 | 10.1 |
| C[C@]12CCC(=O)N[C@@H]1CC[C@@H]1[C@@H]2CC[C@]2(C)O[C@H](n3cnc4c(NCc5ccc(F)cc5)ncnc43)CC[C@@H]12 | 91.5 | 34.8 | > 100 |
| C[C@]12CCC(=O)N[C@@H]1CC[C@@H]1[C@@H]2CC[C@]2(C)O[C@H](n3cnc4c(NCc5ccc(F)cc5)nc(Cl)nc43)CC[C@@H]12 | > 100 | 13.5 | 59.1 |
| CCN(CC)c1ncnc2c1ncn2[C@@H]1CC[C@H]2[C@@H]3CC[C@H]4NC(=O)CC[C@]4(C)[C@H]3CC[C@]2(C)O1 | > 100 | > 100 | 33.8 |
| CCN(CC)c1nc(Cl)nc2c1ncn2[C@@H]1CC[C@H]2[C@@H]3CC[C@H]4NC(=O)CC[C@]4(C)[C@H]3CC[C@]2(C)O1 | 58.1 | 16.4 | 31.1 |
| C[C@]12CCC(=O)N[C@@H]1CC[C@@H]1[C@@H]2CC[C@]2(C)O[C@H](n3cnc4c(NN)ncnc43)CC[C@@H]12 | 87.2 | 34.6 | > 100 |
| C[C@]12CCC(=O)N[C@@H]1CC[C@@H]1[C@@H]2CC[C@]2(C)O[C@H](n3cnc4c(NN)nc(Cl)nc43)CC[C@@H]12 | 2.99 | > 100 | > 100 |
| CN(C)c1ncnc2c1ncn2[C@@H]1CC[C@H]2[C@@H]3CC[C@H]4NC(=O)CC[C@]4(C)[C@H]3CC[C@]2(C)O1 | > 100 | 57.7 | 70.5 |
| CN(C)c1nc(Cl)nc2c1ncn2[C@@H]1CC[C@H]2[C@@H]3CC[C@H]4NC(=O)CC[C@]4(C)[C@H]3CC[C@]2(C)O1 | > 100 | > 100 | 61.3 |
| CC(CO)Nc1nc(Cl)nc2c1ncn2[C@@H]1CC[C@H]2[C@@H]3CC[C@H]4NC(=O)CC[C@]4(C)[C@H]3CC[C@]2(C)O1 (stereo partly specified) | 2.84 | > 100 | > 100 |
| C[C@]12CCC(=O)N[C@@H]1CC[C@@H]1[C@@H]2CC[C@]2(C)O[C@H](n3cnc4c(NCCN)ncnc43)CC[C@@H]12 | > 100 | > 100 | 66.2 |
| C[C@]12CCC(=O)N[C@@H]1CC[C@@H]1[C@@H]2CC[C@]2(C)O[C@H](n3cnc4c(NCCN)nc(Cl)nc43)CC[C@@H]12 | 63.4 | 70.3 | 22.7 |
| C[C@]12CCC(=O)N[C@@H]1CC[C@@H]1[C@@H]2CC[C@]2(C)O[C@H](n3cnc4c(NCCO)ncnc43)CC[C@@H]12 | 49.2 | > 100 | > 100 |
| CC(CO)Nc1ncnc2c1ncn2[C@@H]1CC[C@H]2[C@@H]3CC[C@H]4NC(=O)CC[C@]4(C)[C@H]3CC[C@]2(C)O1 (stereo partly specified) | 15.8 | > 100 | > 100 |
